According to patent US5424290A, “Biologically active peptides and uses therefor” (Magainin Pharmaceuticals Inc., priority 1992, dated 1995):
Residues, ends and D or L forms follow the SMILES beside them.

Experiments:
Type in all cases: cell-based
[1] = test system: P. aeruginosa strain ATCC 27853; test: Minimal Inhibitory Concentration, microtiter broth dilution antibacterial assay; conditions: P. aeruginosa ATCC 27853; Mueller Hinton broth; 16-20 hours at 37° C.; lowest concentration giving a clear well
Description: (§1) Table I, which follows, indicates the Minimal Inhibitory Concentration (MIC) in μg/ml of Peptides (SEQ ID NO:1) through (SEQ ID NO:4), (SEQ ID NO:6) through (SEQ ID NO:13), (SEQ ID NO:16), (SEQ ID NO:20), (SEQ ID NO:21) and (SEQ ID NO:23) against S. aureus strain ATCC 25923, P. aeruginosa strain ATCC 27853, E. coli strain 25922, and Candida albicans. The procedure for the antibacterial assay is based upon the guidelines of the National Committee for Clinical Laboratory Standards, Document M7-T2, Volume 8, No. 8, 1988. Stock solutions of the peptides hereinabove mentioned are prepared at a concentration of 512 μg/ml in sterile deionized distilled water and stored at […]. Each peptide is a C-terminal amide and may or may not be acetylated at the N-terminus. An acetyl group at the N-terminus is indicated by an X. The stock peptide solution is diluted in serial dilutions (1:2) down the wells of a microtiter plate so that the final concentrations of peptides in the wells are 0.25, 0.50, 1, 2, 4, 8, 16, 32, 64, 128, and 256 μg/ml. 1-5×10^5 CFUs/ml of either S. aureus ATCC 25923, E. coli ATCC 25922, P. aeruginosa ATCC 27853, or Candida albicans were added to the wells in full strength Mueller Hinton broth (BBL 11443) from a mid-log culture. The inoculum is standardized spectrophotometrically at 600 nm and is verified by colony counts. The plates are incubated for 16-20 hours at 37° C., and the minimal inhibitory concentration (MIC) for each peptide is determined. Minimal inhibitory concentration is defined as the lowest concentration of peptide which produces a clear well in the microtiter plate.

[2] = test system: S. aureus strain ATCC 25923; test: as above; conditions: S. aureus ATCC 25923; Mueller Hinton broth; 16-20 hours at 37° C.; lowest concentration giving a clear well
Description: as §1

[3] = test system: Candida albicans; test: Minimal Inhibitory Concentration, microtiter broth dilution assay; conditions: Mueller Hinton broth, 16-20 hours at 37° C., lowest concentration giving a clear well
Description: as §1

[4] = test system: E. coli ATCC 25922; test: Minimal Inhibitory Concentration, microtiter broth dilution antibacterial assay; conditions: Mueller Hinton broth, 16-20 hours at 37° C., lowest concentration giving a clear well
Description: as §1

Row | Compound | Minimal Inhibitory Concentration P. aeruginosa [1] | Minimal Inhibitory Concentration S. aureus [2] | Minimal Inhibitory Concentration C. albicans [3] | Minimal Inhibitory Concentration E. coli [4]
1 | CC[C@H](C)[C@H](NC(=O)CN)C(=O)NCC(=O)N[C@@H](CCCCN)C(=O)N[C@H](C(=O)N[C@@H](CC(C)C)C(=O)N[C@@H](CCCCN)C(=O)N[C@@H](CCCCN)C(=O)N[C@@H](C)C(=O)N[C@@H](CCCCN)C(=O)N[C@@H](CCCCN)C(=O)N[C@H](C(=O)NCC(=O)N[C@@H](CCCCN)C(=O)N[C@@H](C)C(=O)N[C@H](C(=O)N[C@H](C(=O)N[C@@H](CCCCN)C(=O)N[C@H](C(=O)N[C@@H](CC(C)C)C(=O)N[C@@H](CCCCN)C(=O)N[C@@H](CCCCN)C(N)=O)[C@@H](C)CC)C(C)C)[C@@H](C)CC)[C@@H](C)CC)[C@@H](C)CC [(SEQ ID NO: 4)-NH2] (H-GIGKILKKAKKIGKAIVKILKK-NH2) | 4 µg/mL | 16 µg/mL | 64 µg/mL | 
2 | CC[C@H](C)[C@H](NC(=O)CNC(=O)[C@H](CCCNC(=N)N)NC(=O)[C@@H](N)CCCNC(=N)N)C(=O)NCC(=O)N[C@@H](CCCCN)C(=O)N[C@@H](Cc1ccccc1)C(=O)N[C@@H](CC(C)C)C(=O)N[C@@H](CCCCN)C(=O)N[C@@H](CCCCN)C(=O)N[C@@H](C)C(=O)N[C@@H](CCCCN)C(=O)N[C@@H](CCCCN)C(=O)N[C@@H](Cc1ccccc1)C(=O)NCC(=O)N[C@@H](CCCCN)C(=O)N[C@@H](C)C(=O)N[C@@H](Cc1ccccc1)C(=O)N[C@H](C(=O)N[C@@H](CCCCN)C(=O)N[C@H](C(=O)N[C@@H](CC(C)C)C(=O)N[C@@H](CCCCN)C(=O)N[C@@H](CCCCN)C(=O)NCC(N)=O)[C@@H](C)CC)C(C)C [(SEQ ID NO: 13)-NH2] (H-RRGIGKFLKKAKKFGKAFVKILKKG-NH2) | 4 µg/mL |  | 64 µg/mL | 
3 | CC[C@H](C)[C@H](NC(=O)CNC(=O)[C@H](CCCNC(=N)N)NC(=O)[C@@H](N)CCCNC(=N)N)C(=O)NCC(=O)N[C@@H](CCCCN)C(=O)N[C@@H](Cc1ccccc1)C(=O)N[C@@H](CC(C)C)C(=O)N[C@@H](CCCCN)C(=O)N[C@@H](CCCCN)C(=O)N[C@@H](C)C(=O)N[C@@H](CCCCN)C(=O)N[C@@H](CCCCN)C(=O)N[C@@H](Cc1ccccc1)C(=O)NCC(=O)N[C@@H](CCCCN)C(=O)N[C@@H](C)C(=O)N[C@@H](Cc1ccccc1)C(=O)N[C@H](C(=O)N[C@@H](CCCCN)C(=O)N[C@H](C(=O)N[C@@H](CC(C)C)C(=O)N[C@@H](CCCCN)C(=O)N[C@@H](CCCCN)C(N)=O)[C@@H](C)CC)C(C)C [(SEQ ID NO: 12)-NH2] (H-RRGIGKFLKKAKKFGKAFVKILKK-NH2) | 32 µg/mL |  | 128 µg/mL | 
4 | CC[C@H](C)[C@H](NC(=O)CN)C(=O)NCC(=O)N[C@@H](CCCCN)C(=O)N[C@@H](Cc1ccccc1)C(=O)N[C@@H](CC(C)C)C(=O)N[C@@H](CCCCN)C(=O)N[C@@H](CCCCN)C(=O)N[C@@H](C)C(=O)N[C@@H](CCCCN)C(=O)N[C@@H](CCCCN)C(=O)N[C@@H](Cc1ccccc1)C(=O)NCC(=O)N[C@@H](CCCCN)C(=O)N[C@@H](C)C(=O)N[C@@H](Cc1ccccc1)C(=O)N[C@H](C(=O)N[C@@H](CCCCN)C(=O)N[C@H](C(=O)N[C@@H](CC(C)C)C(=O)N[C@@H](CCCCN)C(=O)N[C@@H](CCCCN)C(=O)N[C@@H](CC(N)=O)C(N)=O)[C@@H](C)CC)C(C)C [(SEQ ID NO: 9)-NH2] (H-GIGKFLKKAKKFGKAFVKILKKN-NH2) | 8 µg/mL | 64 µg/mL |  | 
5 | CC[C@H](C)[C@H](N)C(=O)NCC(=O)N[C@@H](CCCCN)C(=O)N[C@@H](Cc1ccccc1)C(=O)N[C@@H](CC(C)C)C(=O)N[C@@H](CCCCN)C(=O)N[C@@H](CCCCN)C(=O)N[C@@H](C)C(=O)N[C@@H](CCCCN)C(=O)N[C@@H](CCCCN)C(=O)N[C@@H](Cc1ccccc1)C(=O)NCC(=O)N[C@@H](CCCCN)C(=O)N[C@@H](CCCCN)C(=O)N[C@@H](Cc1ccccc1)C(=O)N[C@@H](CCCCN)C(=O)N[C@@H](CCCCN)C(=O)N[C@@H](CCC(=O)O)C(=O)N[C@H](C(=O)N[C@@H](CCCCN)C(=O)N[C@@H](CCCCN)C(N)=O)[C@@H](C)CC [(SEQ ID NO: 3)-NH2] (H-IGKFLKKAKKFGKKFKKEIKK-NH2) | 16 µg/mL | 32 µg/mL |  | 
6 | CC[C@H](C)[C@H](NC(=O)CN)C(=O)NCC(=O)N[C@@H](CCCCN)C(=O)N[C@@H](Cc1ccccc1)C(=O)N[C@@H](CC(C)C)C(=O)N[C@@H](CCCCN)C(=O)N[C@@H](CCCCN)C(=O)N[C@@H](C)C(=O)N[C@@H](CCCCN)C(=O)N[C@@H](CCCCN)C(=O)N[C@@H](Cc1ccccc1)C(=O)NCC(=O)N[C@@H](CCCCN)C(=O)N[C@@H](C)C(=O)N[C@@H](Cc1ccccc1)C(=O)N[C@H](C(=O)N[C@@H](CCCCN)C(=O)N[C@H](C(=O)N[C@@H](CC(C)C)C(=O)N[C@@H](CCCCN)C(=O)N[C@@H](CCCCN)C(N)=O)[C@@H](C)CC)[C@@H](C)CC [(SEQ ID NO: 19)-NH2] (H-GIGKFLKKAKKFGKAFIKILKK-NH2) | 8 µg/mL | 8 µg/mL |  | 
7 | CC[C@H](C)[C@H](NC(=O)CN)C(=O)NCC(=O)N[C@@H](CCCCN)C(=O)N[C@@H](Cc1ccccc1)C(=O)N[C@@H](CC(C)C)C(=O)N[C@@H](CCCCN)C(=O)N[C@@H](CCCCN)C(=O)N[C@@H](C)C(=O)N[C@@H](CCCCN)C(=O)N[C@@H](CCCCN)C(=O)N[C@@H](Cc1ccccc1)C(=O)NCC(=O)N[C@@H](CCCCN)C(=O)N[C@@H](C)C(=O)N[C@@H](Cc1ccccc1)C(=O)N[C@H](C(=O)N[C@@H](CCCCN)C(=O)N[C@H](C(=O)N[C@@H](CC(C)C)C(=O)N[C@@H](CCCCN)C(=O)N[C@@H](CCCCN)C(=O)N[C@@H](CCCNC(=N)N)C(N)=O)[C@@H](C)CC)C(C)C [(SEQ ID NO: 8)-NH2] (H-GIGKFLKKAKKFGKAFVKILKKR-NH2) | 4 µg/mL | 16 µg/mL | 64 µg/mL | 
8 | CC[C@H](C)[C@H](N)C(=O)N[C@@H](CCCCN)C(=O)N[C@@H](CCCCN)C(=O)N[C@@H](Cc1ccccc1)C(=O)N[C@@H](CC(C)C)C(=O)N[C@@H](CCCCN)C(=O)N[C@@H](CCCCN)C(=O)N[C@@H](C)C(=O)N[C@@H](CCCCN)C(=O)N[C@@H](CCCCN)C(=O)N[C@@H](Cc1ccccc1)C(=O)NCC(=O)N[C@@H](CCCCN)C(=O)N[C@@H](CCCCN)C(=O)N[C@@H](Cc1ccccc1)C(=O)N[C@@H](CCCCN)C(=O)N[C@@H](CCCCN)C(=O)N[C@H](C(=O)N[C@@H](CC(C)C)C(=O)N[C@@H](CCCCN)C(=O)N[C@@H](CCCCN)C(N)=O)[C@@H](C)CC [(SEQ ID NO: 2)-NH2] (H-IKKFLKKAKKFGKKFKKILKK-NH2) | 8 µg/mL |  |  | 16 µg/mL
9 | CC[C@H](C)[C@H](NC(=O)CNC(=O)[C@@H](N)CCSC)C(=O)NCC(=O)N[C@@H](CCCCN)C(=O)N[C@@H](Cc1ccccc1)C(=O)N[C@@H](CC(C)C)C(=O)N[C@@H](CCCCN)C(=O)N[C@@H](CCCCN)C(=O)N[C@@H](C)C(=O)N[C@@H](CCCCN)C(=O)N[C@@H](CCCCN)C(=O)N[C@@H](Cc1ccccc1)C(=O)NCC(=O)N[C@@H](CCCCN)C(=O)N[C@@H](C)C(=O)N[C@@H](Cc1ccccc1)C(=O)N[C@H](C(=O)N[C@@H](CCCCN)C(=O)N[C@H](C(=O)N[C@@H](CC(C)C)C(=O)N[C@@H](CCCCN)C(=O)N[C@@H](CCCCN)C(N)=O)[C@@H](C)CC)C(C)C [(SEQ ID NO: 11)-NH2] (H-MGIGKFLKKAKKFGKAFVKILKK-NH2) |  | 64 µg/mL | 64 µg/mL | 
